# Reference: ChEMBL document CHEMBL6083204, “Synthesis of a celastrol derivative as a cancer stem cell inhibitor through regulation of the STAT3 pathway for treatment of ovarian cancer” (RSC Med Chem, 2024)
# The source made the active and inactive calls. No cut-off for these calls is given here.
# Columns and labels:
# SK-OV-3 [1] = experiment: Induction of cell cycle arrest in human SK-OV-3 cells assessed as accumulation of cells at G2/M phase at 0.4 uM incubated for 24 hrs by BrdU staining based flow cytometry (reference value: 6.3 %); assay type: functional
# SK-OV-3 [2] = experiment: Induction of apoptosis in human SK-OV-3 cells assessed as viable cells at 0.4 uM incubated for 24 hrs by Annexin V-FITC/7-AAD staining based flow cytometry (reference value: 94.6 %); assay type: functional; conditions: read-out: Activity
# A2780 [3] = experiment: Antiproliferative activity against human A2780 cells assessed as decrease in CD44 positive CD24 negative cells expression at 0.4 uM incubated for 24 hrs by FITC staining based flow cytometry (reference value: 28.13 %); assay type: functional; set-up: scale not given: the % may be the effect or the level left
# SK-OV-3 [4] = experiment: Inhibition of human SK-OV-3 cells spheroid formation assessed as reduction in spheroid number at 0.1 to 0.4 uM incubated for 10 days by inverted microscopic analysis; assay type: functional, cell-based; conditions: dose 0.1-0.4 µM, time 10.0 day
# A2780 [5] = experiment: Inhibition of colony formation in human A2780 cells assessed as reduction in colony size incubated for 10 days by crystal violet staining based analysis; assay type: functional, cell-based; conditions: time 10.0 day
# [6] = Toxicity in BALB/c mouse xenografted with human SK-OV-3 cells assessed as pathological change in spleen at 2 to 5 mg/kg,ip administrated for 21 consecutive days by hematoxylin and eosin staining based assay; assay type: organism-based; conditions: in vivo, dose 2-5 mg/kg
# [7] = Toxicity in BALB/c mouse xenografted with human SK-OV-3 cells assessed as pathological change in kidney at 2 to 5 mg/kg,ip administrated for 21 consecutive days by hematoxylin and eosin staining based assay; assay type: organism-based; conditions: in vivo, dose 2-5 mg/kg
# SK-OV-3 [8] = experiment: Induction of cell cycle arrest in human SK-OV-3 cells assessed as accumulation of cells at G0/G1 phase at 0.8 uM incubated for 24 hrs by BrdU staining based flow cytometry (reference value: 59.8 %); assay type: functional
# A2780 [9] = experiment: Antiproliferative activity against human A2780 cells assessed as decrease in CD44 positive CD24 negative cells expression at 0.2 uM incubated for 24 hrs by FITC staining based flow cytometry (reference value: 28.13 %); assay type: functional; set-up: scale not given: the % may be the effect or the level left
# A2780 [10] = experiment: Induction of cell cycle arrest in human A2780 cells assessed as reduction of CDK4 expression at 0.4 uM incubated for 24 hrs by flow cytometry (reference value: 93.6 %); assay type: functional; set-up: scale not given: the % may be the effect or the level left
# SK-OV-3 [11] = experiment: Induction of apoptosis in human SK-OV-3 cells assessed as increase in caspase-3 activity at 0.4 uM incubated for 24 hrs by flow cytometry (reference value: 4.6 %); assay type: functional
# SK-OV-3 [12] = experiment: Induction of apoptosis in human SK-OV-3 cells assessed as early apoptotic cells at 0.4 uM incubated for 24 hrs by Annexin V-FITC/7-AAD staining based flow cytometry (reference value: 1.6 %); assay type: functional
# [13] = target: Tyrosine-protein kinase JAK1 (Homo sapiens) (UniProt P23458); experiment: Inhibition of JAK1 in human SK-OV-3 cells assessed as downregulation of JAK1 phosphorylation at 0.1 to 0.4 uM incubated for 24 hrs by Western blotting analysis; assay type: cell-based; conditions: dose 0.1-0.4 µM
# SK-OV-3 [14] = experiment: Antiproliferative activity against human SK-OV-3 cells assessed as decrease in CD44 positive CD24 negative cells expression at 0.2 uM incubated for 24 hrs by FITC staining based flow cytometry (reference value: 85.6 %); assay type: functional; set-up: scale not given: the % may be the effect or the level left
# [15] = target: Signal transducer and activator of transcription 3 (Homo sapiens) (UniProt P40763); experiment: Inhibition of STAT3 in human SK-OV-3 cells assessed as downregulation of STAT3 phosphorylation at Ser727 residue incubated for 24 hrs by Western blotting analysis; assay type: cell-based
# SK-OV-3 [16] = experiment: Antitumor activity against human SK-OV-3 cells xenografted in BALB/c mouse assessed as reduction in tumor weight at 2 mg/kg,ip administrated for 21 consecutive days; assay type: functional, organism-based
# A2780 [17] = experiment: Induction of apoptosis in human A2780 cells assessed as increase in caspase-8 activity at 0.4 uM incubated for 24 hrs by flow cytometry (reference value: 1.2 %); assay type: functional
# SK-OV-3 [18] = experiment: Inhibition of colony formation in human SK-OV-3 cells assessed as reduction in colony size incubated for 10 days by crystal violet staining based analysis; assay type: functional, cell-based; conditions: time 10.0 day
# A2780 [19] = experiment: Induction of apoptosis in human A2780 cells assessed as early apoptotic cells at 0.8 uM incubated for 24 hrs by Annexin V-FITC/7-AAD staining based flow cytometry (reference value: 1.9 %); assay type: functional
# [20] = Cytotoxicity against human IOSE80 cells assessed as inhibition of cell growth incubated for 72 hrs by MTT assay; assay type: toxicity, cell-based
# A2780 [21] = experiment: Antiproliferative activity against human A2780 cells assessed as decrease in ALDH positive cells at 0.2 uM incubated for 24 hrs by ALDEFLUOR staining based flow cytometry (reference value: 32.5 %); assay type: functional; set-up: scale not given: the % may be the effect or the level left
# A2780 [22] = experiment: Induction of cell cycle arrest in human A2780 cells assessed as accumulation of cells at G2/M phase at 0.2 uM incubated for 24 hrs by BrdU staining based flow cytometry (reference value: 6.2 %); assay type: functional
# A2780 [23] = experiment: Inhibition of colony formation in human A2780 cells assessed as reduction in colony number incubated for 10 days by crystal violet staining based analysis; assay type: functional, cell-based; conditions: time 10.0 day
# [24] = Toxicity in BALB/c mouse xenografted with human SK-OV-3 cells assessed as pathological change in heart at 2 to 5 mg/kg,ip administrated for 21 consecutive days by hematoxylin and eosin staining based assay; assay type: organism-based; conditions: in vivo, dose 2-5 mg/kg
# SK-OV-3 [25] = experiment: Antiproliferative activity against human SK-OV-3 cells assessed as decrease in ALDH positive cells at 0.2 uM incubated for 24 hrs by ALDEFLUOR staining based flow cytometry (reference value: 3.83 %); assay type: functional; set-up: scale not given: the % may be the effect or the level left
# Mitochondrial membrane = experiment: Induction of mitochondrial membrane potential loss in human SK-OV-3 cells at 0.4 uM incubated for 24 hrs by JC-1 staining based flow cytometry (reference value: 73.6 %)
# SK-OV-3 [26] = experiment: Induction of apoptosis in human SK-OV-3 cells assessed as viable cells at 0.8 uM incubated for 24 hrs by Annexin V-FITC/7-AAD staining based flow cytometry (reference value: 94.6 %); assay type: functional; conditions: read-out: Activity
# [27] = target: Signal transducer and activator of transcription 3 (Homo sapiens) (UniProt P40763); experiment: Inhibition of STAT3 in human A2780 cells assessed as downregulation of cytoplasmic STAT3 expression at 0.2 uM incubated for 24 hrs by Hoechst33342 staining based immunofluorescence assay; assay type: cell-based
# SK-OV-3 [28] = experiment: Inhibition of cell migration in human SK-OV-3 cells assessed as downregulation of phosphorylated FAK expression at 0.1 to 0.4 uM incubated for 24 hrs by Western blotting analysis; assay type: functional, cell-based; conditions: dose 0.1-0.4 µM
# [29] = target: Tyrosine-protein kinase JAK1 (Homo sapiens) (UniProt P23458); experiment: Inhibition of JAK1 in human SK-OV-3 cells assessed as downregulation of JAK1 expression at 0.1 to 0.4 uM incubated for 24 hrs by Western blotting analysis; assay type: cell-based; conditions: dose 0.1-0.4 µM
# SK-OV-3 [30] = experiment: Induction of apoptosis in human SK-OV-3 cells assessed as increase in caspase-3 activity at 0.8 uM incubated for 24 hrs by flow cytometry (reference value: 4.6 %); assay type: functional
# SK-OV-3 [31] = experiment: Induction of apoptosis in human SK-OV-3 cells assessed as viable cells at 0.2 uM incubated for 24 hrs by Annexin V-FITC/7-AAD staining based flow cytometry (reference value: 94.6 %); assay type: functional; conditions: read-out: Activity
# SK-OV-3 [32] = experiment: Induction of cell cycle arrest in human SK-OV-3 cells assessed as reduction of CDK2 expression at 0.2 uM incubated for 24 hrs by flow cytometry (reference value: 94.4 %); assay type: functional; set-up: scale not given: the % may be the effect or the level left
# Sequence of Signal transducer and activator of transcription 3 (Homo sapiens) (P40763 whole entry): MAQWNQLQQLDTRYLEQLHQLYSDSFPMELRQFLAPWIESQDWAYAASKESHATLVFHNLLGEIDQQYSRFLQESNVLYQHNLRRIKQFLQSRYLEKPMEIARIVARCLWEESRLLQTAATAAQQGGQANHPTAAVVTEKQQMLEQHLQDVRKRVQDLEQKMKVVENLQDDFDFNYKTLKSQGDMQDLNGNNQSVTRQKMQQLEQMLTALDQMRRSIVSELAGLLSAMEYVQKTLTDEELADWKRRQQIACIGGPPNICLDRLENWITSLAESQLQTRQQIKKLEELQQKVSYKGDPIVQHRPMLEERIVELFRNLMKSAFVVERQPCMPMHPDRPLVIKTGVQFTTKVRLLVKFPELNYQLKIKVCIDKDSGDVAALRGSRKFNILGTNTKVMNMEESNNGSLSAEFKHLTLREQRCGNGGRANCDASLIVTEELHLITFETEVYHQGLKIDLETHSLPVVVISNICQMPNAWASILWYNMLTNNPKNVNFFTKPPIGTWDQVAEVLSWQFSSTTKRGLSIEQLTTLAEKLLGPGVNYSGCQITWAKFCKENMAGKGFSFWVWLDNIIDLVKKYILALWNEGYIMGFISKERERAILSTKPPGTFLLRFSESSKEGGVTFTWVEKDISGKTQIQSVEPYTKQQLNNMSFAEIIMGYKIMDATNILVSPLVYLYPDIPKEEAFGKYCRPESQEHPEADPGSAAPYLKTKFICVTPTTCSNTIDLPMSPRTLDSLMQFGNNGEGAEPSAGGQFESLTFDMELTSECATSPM
# Sequence of Tyrosine-protein kinase JAK1 (Homo sapiens) (P23458 whole entry): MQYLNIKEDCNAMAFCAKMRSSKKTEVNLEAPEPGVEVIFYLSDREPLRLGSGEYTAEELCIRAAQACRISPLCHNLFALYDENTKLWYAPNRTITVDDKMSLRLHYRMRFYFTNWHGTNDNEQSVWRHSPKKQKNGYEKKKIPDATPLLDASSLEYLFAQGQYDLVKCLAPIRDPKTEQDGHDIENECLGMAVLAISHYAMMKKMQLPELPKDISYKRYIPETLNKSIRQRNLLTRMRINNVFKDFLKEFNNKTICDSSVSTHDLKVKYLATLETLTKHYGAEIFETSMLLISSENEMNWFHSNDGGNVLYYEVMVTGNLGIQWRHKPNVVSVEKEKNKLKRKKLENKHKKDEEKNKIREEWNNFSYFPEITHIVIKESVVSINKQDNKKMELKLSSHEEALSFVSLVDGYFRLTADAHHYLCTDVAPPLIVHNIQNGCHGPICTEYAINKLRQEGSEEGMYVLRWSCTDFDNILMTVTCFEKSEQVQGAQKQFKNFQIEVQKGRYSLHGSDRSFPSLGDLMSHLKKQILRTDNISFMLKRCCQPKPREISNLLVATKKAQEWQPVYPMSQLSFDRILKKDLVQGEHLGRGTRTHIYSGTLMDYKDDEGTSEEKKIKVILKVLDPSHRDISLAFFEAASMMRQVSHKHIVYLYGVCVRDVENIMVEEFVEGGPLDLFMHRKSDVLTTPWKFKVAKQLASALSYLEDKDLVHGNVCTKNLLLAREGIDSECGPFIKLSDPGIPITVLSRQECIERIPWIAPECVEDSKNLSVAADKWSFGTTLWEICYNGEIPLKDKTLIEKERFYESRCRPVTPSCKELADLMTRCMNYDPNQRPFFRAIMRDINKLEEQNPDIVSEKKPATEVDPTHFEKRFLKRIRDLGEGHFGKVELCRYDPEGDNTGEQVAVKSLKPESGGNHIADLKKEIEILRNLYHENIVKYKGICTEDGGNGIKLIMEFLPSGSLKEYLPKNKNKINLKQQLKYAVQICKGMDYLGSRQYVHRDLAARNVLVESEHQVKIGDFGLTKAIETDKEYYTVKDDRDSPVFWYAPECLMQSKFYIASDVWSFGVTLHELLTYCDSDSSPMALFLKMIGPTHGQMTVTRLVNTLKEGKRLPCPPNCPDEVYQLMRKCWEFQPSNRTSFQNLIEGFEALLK
smiles,measurement,setting,value
CC1=C(O)C(=O)C=C2C1=CC=C1[C@@]2(C)CC[C@@]2(C)[C@@H]3C[C@](C)(C(=O)N4CCNCC4)CC[C@]3(C)CC[C@]12C,Activity,SK-OV-3 [1],7.4%
same,viability at 0.4 µM,SK-OV-3 [2],64.4%
same,Activity,A2780 [3],2.93%
same,inhibition,SK-OV-3 [4],Active
same,inhibition,A2780 [5],Dose-dependent-effect
same,Activity,[6],Non-toxic
same,Activity,[7],Non-toxic
same,Activity,SK-OV-3 [8],47.7%
same,Activity,A2780 [9],17.97%
same,Activity,A2780 [10],17.2%
same,Activity,SK-OV-3 [11],12.6%
same,Activity,SK-OV-3 [12],23.3%
same,inhibition,[13],Active
same,Activity,SK-OV-3 [14],64.53%
same,inhibition,[15],Dose-dependent-effect
same,Activity,SK-OV-3 [16],Active
same,Activity,A2780 [17],9.8%
same,inhibition,SK-OV-3 [18],Dose-dependent-effect
same,Activity,A2780 [19],1.7%
same,IC50 at 72 h,[20],1010 nM
same,Activity,A2780 [21],3.83%
same,Activity,A2780 [22],4.8%
same,inhibition,A2780 [23],Dose-dependent-effect
same,Activity,[24],Non-toxic
same,Activity,SK-OV-3 [25],2.07%
same,Activity,Mitochondrial membrane,17.2%
same,viability at 0.8 µM,SK-OV-3 [26],48%
same,inhibition,[27],Active; Showed Mild Inhibition Activity
same,inhibition,SK-OV-3 [28],Active
same,inhibition,[29],Active
same,Activity,SK-OV-3 [30],33.8%
same,viability at 0.2 µM,SK-OV-3 [31],74.2%
same,Activity,SK-OV-3 [32],91.1%
